# According to patent publication US4021481A, “Amido derivatives of 2,4,6-triiodobenzoic acids containing at least one N-hydroxyalkyl and at least two hydroxyl groups” (Nyegaard & Co. A/S, priority 1969, dated 1977):
# Like-named read-outs stand apart in the source and are kept apart here.
# Experiments:
# Solubility in water = assay type: physicochemical; conditions: for solubility: water
# mice [1] = experiment: Intravenous toxicity in mice (LD50); assay type: in vivo
# Text: (§1) As indicated above, the new non-ionic compounds according to the invention have shown markedly low levels of toxicity, especially in intracerebral tests. […] It will be seen that all the new compounds listed are very much better than the known compounds in the intracerebral test.
# (§2) Intravenous and Intracerebral Toxicity
# (§3) Most of the compounds were so inert that it was not physically possible to inject sufficient substance to kill 50% of the mice and in such cases only a minimum value can be given for the LD50.
# mice [2] = experiment: Intracerebral toxicity in mice (LD50); assay type: in vivo
# Text: as §1, §2, §3
# [3] = Osmolality of aqueous solution; assay type: physicochemical; conditions: 37° C.; 300 mg I/ml
# Description: As indicated above, the compounds according to the invention are of low osmolality as compared to conventional ionic contrast agents and many of the compounds show even lower osmolality values than would have been expected. The observed osmolality in each case would be expected to be about 0.8 mol/kg but compounds 3, 33, 35, 44 and 11 identified in Table I have shown osmolality values of 0.47, 0.48, 0.61, 0.53 and 0.48 mol/kg respectively at 37° C. (300 mg I ml). The last two compounds in Table 2, which are ionic compounds shown for comparison, have osmolality values of about 1.6 mol/kg.
# [4] = room temperature, read-out: Solubility in water at room temperature (class)
# [5] = concentration administered 280 mgI/ml, N-methylglucamine salt
# [6] = known compounds, dose 0.05 ml/20 g mouse, concentration not given
# [7] = 300 mgI/ml, dose 0.10 ml/20 g mouse
# [8] = room temperature, figure in parentheses, read-out: Solubility in water at room temperature
# [9] = concentration administered 300 mgI/ml
# [10] = 300 mgI/ml, dose 0.05 ml/20 g mouse
# [11] = 400 mgI/ml, dose 0.10 ml/20 g mouse
# [12] = 400 mgI/ml, dose 0.05 ml/20 g mouse
compound,measurement,setting,value
"CC(=O)Nc1c(I)cc(I)c(C(=O)N(C)C[C@H](O)[C@@H](O)[C@H](O)[C@H](O)CO)c1I [Compound 30, N-(3-acetamido-2,4,6-triiodobenzoyl)-N-methyl-glucamine]",solubility,Solubility in water; [4],> 500 mg/mL
"CNC(=O)c1c(I)c(NC(C)=O)c(I)c(C(=O)O)c1I [5-Acetamido-2,4,6-triiodo-N-methylisophthalamic acid, reference compound]",Intravenous LD50,mice [1]; [5],6000 mgI/kg
same,Intracerebral LD50,mice [2]; [6],210 mgI/kg
"CC(=O)N(CCO)c1c(I)c(C(=O)N[C@H]2C(O)O[C@H](CO)[C@@H](O)[C@@H]2O)c(I)c(N(CCO)C(C)=O)c1I (stereo partly drawn) [Compound 12, N-[N,N'-di-(β-hydroxyethyl)-3,5-diacetamido-2,4,6-triiodobenzoyl]-glucosamine]",Intravenous LD50,"mice [1]; concentration administered 300 mgI/ml, dose 0.8 ml/20 g mouse",> 12000 mgI/kg
same,Intracerebral LD50,mice [2]; [7],> 1500 mgI/kg
same,solubility,Solubility in water; [4],> 500 mg/mL
"CC(=O)N(C)c1c(I)cc(I)c(C(=O)N(C)C[C@H](O)[C@@H](O)[C@H](O)[C@H](O)CO)c1I [Compound 31, N-(3-N-methylacetamido-2,4,6-triiodobenzoyl)-N-methylglucamine]",solubility,Solubility in water; [4],> 500 mg/mL
"CC(=O)N(CCO)c1c(I)c(C(=O)NCCO)c(I)c(N(CCO)C(C)=O)c1I [Compound 45, N-[3,5-bis-N-(β-hydroxyethyl)-acetamido-2,4,6-triiodobenzoyl]-ethanolamine]",solubility,Solubility in water; [8],214 mg/mL
same,solubility,Solubility in water; [4],200 to 500 mg/mL
"CC(=O)N(C)c1c(I)c(C(=O)N(CCO)CCO)c(I)c(N(CCO)C(C)=O)c1I [Compound 39, N-[3-N-methylacetamido-5-N-(β-hydroxyethyl)-acetamido-2,4,6-triiodobenzoyl]-diethanolamine]",solubility,Solubility in water; [4],> 500 mg/mL
"CC(=O)Nc1c(I)c(C(=O)N(CCO)CCO)c(I)c(N(C)C(C)=O)c1I [Compound 34, N-(N-methyl-3,5-diacetamido-2,4,6-triiodobenzoyl)-N,N-di-(β-hydroxyethyl)-amine]",solubility,Solubility in water; [8],213 mg/mL
same,solubility,Solubility in water; [4],200 to 500 mg/mL
"O=S(=O)(CI)N(CCO)CCO [Compound 29, N-(Iodomethanesulphonyl)-diethanolamine]",Solubility in cold water,"Solubility in water; cold water, in words",sparingly soluble in cold
same,Solubility in hot water,Solubility in water; in words,Soluble in hot water
"CC(=O)Nc1c(I)c(C(=O)N[C@@H](CO)[C@@H](O)[C@H](O)[C@H](O)CO)c(I)c(N(C)C(C)=O)c1I [Compound 15, N-(N-methyl-3,5-diacetamido-2,4,6-triiodobenzoyl)-2-glucamine]",Intravenous LD50,"mice [1]; concentration administered 300 mgI/ml, dose 1.0 ml/20 g mouse",> 15000 mgI/kg
same,Intracerebral LD50,mice [2]; [7],> 1500 mgI/kg
same,solubility,Solubility in water; [4],> 500 mg/mL
"CC(=O)N(C)c1c(I)c(C(=O)NCC(O)CO)c(I)c(N(CCO)C(C)=O)c1I (stereo not drawn) [Compound 40, N-[3-N-methylacetamido-5-N-(β-hydroxyethyl)-acetamido-2,4,6-triiodobenzoyl]-N-(2,3-dihydroxypropyl)-amine]",solubility,Solubility in water; [8],2.6 mg/mL
same,solubility,Solubility in water; [4],< 200 mg/mL
"CC(=O)N(C)c1c(I)c(C(=O)N[C@H]2C(O)O[C@H](CO)[C@@H](O)[C@@H]2O)c(I)c(N(CCO)C(C)=O)c1I (stereo partly drawn) [Compound 10, N-[3-N-(β-hydroxyethyl)-acetamido-5-N-methylacetamido-2,4,6-triiodobenzoyl]-glucosamine]",Intravenous LD50,mice [1]; [9],8250 mgI/kg
same,Intracerebral LD50,mice [2]; [10],> 750 mgI/kg
same,Intracerebral LD50,mice [2]; [7],> 1500 mgI/kg
same,solubility,Solubility in water; [4],> 500 mg/mL
"CC(=O)N(C)c1c(I)c(C(=O)NC(CO)(CO)CO)c(I)c(N(CCO)C(C)=O)c1I [Compound 41, N-[3-N-methylacetamido-5-N-(β-hydroxyethyl)-acetamido-2,4,6-triiodobenzoyl]-N-[tris-(hydroxymethyl)-methyl]-amine]",solubility,Solubility in water; [8],8.6 mg/mL
same,solubility,Solubility in water; [4],< 200 mg/mL
"CNC(=O)c1c(I)c(NC(C)=O)c(I)c(C(=O)N[C@H]2C(O)O[C@H](CO)[C@@H](O)[C@@H]2O)c1I (stereo partly drawn) [Compound 19, N-(3-acetamido-5-N-methylcarbamoyl-2,4,6-triiodobenzoyl)-D-glucosamine]",solubility,"Solubility in water; 28°, read-out: Solubility in water at 28°",14 mg/mL
"O=S(=O)(O)CI [Iodomethanesulphonic acid, reference compound]",Intracerebral LD50,mice [2]; [6],195 mgI/kg
"CC(=O)Nc1c(I)c(NC(C)=O)c(I)c(C(=O)N[C@H]2C(O)O[C@H](CO)[C@@H](O)[C@@H]2O)c1I (stereo partly shown) [Compound 14, N-(3,5-diacetamido-2,4,6-triiodobenzoyl)-glucosamine]",solubility,Solubility in water; [4],> 500 mg/mL
"CC(=O)N(C)c1c(I)c(C(=O)N(C)CCO)c(I)c(N(CCO)C(C)=O)c1I [Compound 38, N-[3-N-methylacetamido-5-N-(β-hydroxyethyl)-acetamido-2,4,6-triiodobenzoyl]-N-methylethanolamine]",solubility,Solubility in water; [8],255 mg/mL
same,solubility,Solubility in water; [4],200 to 500 mg/mL
"CC(=O)N(C)c1c(I)cc(I)c(C(=O)NC[C@H](O)[C@@H](O)[C@H](O)[C@H](O)CO)c1I [Compound 1, N-(3-N-methylacetamido-2,4,6-triiodobenzoyl)-glucamine]",solubility,Solubility in water; [4],> 500 mg/mL
"CC(=O)N(C)c1c(I)cc(I)c(C(=O)N[C@H]2C(O)O[C@H](CO)[C@@H](O)[C@@H]2O)c1I (stereo partly drawn) [Compound 32, N-(3-N-methylacetamido-2,4,6-triodobenzoyl)-D-glucosamine]",solubility,Solubility in water; [4],> 500 mg/mL
"CC(=O)N(CCO)c1c(I)c(C(=O)N(CCO)CCO)c(I)c(N(CCO)C(C)=O)c1I [Compound 5, N-[N,N'-di-(β-hydroxyethyl)-3,5-diacetamido-2,4,6-triiodobenzoyl]-diethanolamine]",solubility,Solubility in water; [4],> 500 mg/mL
"CNC(=O)c1c(I)c(NC(C)=O)c(I)c(C(=O)N(CCO)C[C@H](O)[C@@H](O)[C@H](O)[C@H](O)CO)c1I [Compound 49, N-(3-Acetamido-5-N-methylcarbamoyl-2,4,6-triiodobenzoyl)-N-(2-hydroxyethyl)-glucamine]",Intravenous LD50,mice [1]; [9],15000 mgI/kg
same,Intracerebral LD50,mice [2]; [7],> 1500 mgI/kg
CNC(=O)c1c(I)c(NC(C)=O)c(I)c(C(=O)N(C)C[C@H](O)[C@@H](O)[C@H](O)[C@H](O)CO)c1I [Compound 6],Intravenous LD50,mice [1]; [9],10000 mgI/kg
same,Intracerebral LD50,mice [2]; [7],> 1500 mgI/kg
same,solubility,Solubility in water; [4],> 500 mg/mL
"CC(=O)N(C)c1c(I)c(C(=O)N(C)C[C@H](O)[C@@H](O)[C@H](O)[C@H](O)CO)c(I)c(N(CCO)C(C)=O)c1I [Compound 35, N-[3-N-methylacetamido-5-N-(β-hydroxyethyl)-acetamido-2,4,6-triiodobenzoyl]-N-methylglucamine]",Intracerebral LD50,mice [2]; [10],> 750 mgI/kg
same,Intracerebral LD50,mice [2]; [11],> 2000 mgI/kg
same,solubility,Solubility in water; [4],> 500 mg/mL
same,Osmolality,[3],0.61 mol/kg
"CC(=O)OCCN(C(C)=O)c1c(I)c(C(=O)N(C)C[C@H](O)[C@@H](O)[C@H](O)[C@H](O)CO)c(I)c(N(C)C(C)=O)c1I [Compound 36, N-[3-N-methylacetamido-5-N-(β-acetoxyethyl)-acetamido-2,4,6-triiodobenzoyl]-N-methylglucamine]",solubility,Solubility in water; [4],200 to 500 mg/mL
"CC(=O)Nc1c(I)c(NC(C)=O)c(I)c(C(=O)N(C)C[C@H](O)[C@@H](O)[C@H](O)[C@H](O)CO)c1I [Compound 25, N-(3,5-diacetamido-2,4,6-triiodobenzoyl)-N-methyl-glucamine]",solubility,Solubility in water; [8],79 mg/mL
same,solubility,Solubility in water; [4],< 200 mg/mL
"CN(C[C@H](O)[C@@H](O)[C@H](O)[C@H](O)CO)S(=O)(=O)CI [Compound 28, N-(Iodomethane sulphonyl)-N-methylglucamine]",Solubility in hot water,Solubility in water; in words,Very soluble in hot water
same,solubility,"Solubility in water; cold water, read-out: Solubility in cold water",~100 mg/mL
"CC(=O)NCc1c(I)c(NC(C)=O)c(I)c(C(=O)N(C)C[C@H](O)[C@@H](O)[C@H](O)[C@H](O)CO)c1I [Compound 7, N-(3-Acetamido-5-acetamidomethyl-2,4,6-triiodobenzoyl)-N-methylglucamine]",solubility,Solubility in water; [4],> 500 mg/mL
"CC(=O)N(C)c1c(I)c(C(=O)NCCO)c(I)c(N(CCO)C(C)=O)c1I [Compound 37, N-[3-N-methylacetamido-5-N-(β-hydroxyethyl)-acetamido-2,4,6-triiodobenzoyl]-ethanolamine]",solubility,Solubility in water; [8],4 mg/mL
same,solubility,Solubility in water; [4],< 200 mg/mL
"CC(=O)N(C)c1c(I)c(C(=O)N(C)CC(O)CO)c(I)c(N(CCO)C(C)=O)c1I (stereo not drawn) [Compound 4, N-[3-N-(β-hydroxyethyl)-acetamido-5-N-methylacetamido-2,4,6-triiodobenzoyl]-N-methyl-2,3-dihydroxypropylamine]",Intracerebral LD50,mice [2]; [12],> 1000 mgI/kg
same,solubility,Solubility in water; [4],> 500 mg/mL
"CC(=O)Nc1c(I)c(C(=O)O)c(I)c(N(C)C(C)=O)c1I [N-Methyl-3,5-diacetamido-2,4,6-triiodobenzoic acid, reference compound]",Intravenous LD50,mice [1]; [5],6000 mgI/kg
same,Intracerebral LD50,mice [2]; [6],130 mgI/kg
"CC(=O)N(CCO)c1c(I)c(C(=O)N(C)C[C@H](O)[C@@H](O)[C@H](O)[C@H](O)CO)c(I)c(N(CCO)C(C)=O)c1I [Compound 43, N-[3,5-bis-N-(β -hydroxyethyl)-acetamido-2,4,6-triiodobenzoyl]-N-methylglucamine]",Intravenous LD50,mice [1]; [9],7500 mgI/kg
same,Intracerebral LD50,mice [2]; [12],> 1000 mgI/kg
same,Intracerebral LD50,mice [2]; [11],> 2000 mgI/kg
same,solubility,Solubility in water; [4],> 500 mg/mL
